Results: BigSolDB 2.1

Nc1ncccn1
Details	solubility (mole fraction)
in 2-butanone, 272.65 K	0.0201
in 2-butanone, 278.25 K	0.0249
in 2-butanone, 283.55 K	0.0317
in 2-butanone, 288.15 K	0.0361
in 2-butanone, 293.15 K	0.0418
in 2-butanone, 297.85 K	0.0512
in 2-butanone, 302.65 K	0.0621
in 2-butanone, 307.25 K	0.0721
in 2-butanone, 312.55 K	0.0865
in 2-butanone, 317.35 K	0.0988
in 2-butanone, 323.35 K	0.118
in 2-pentanone, 272.65 K	0.0158
in 2-pentanone, 278.25 K	0.0192
in 2-pentanone, 283.55 K	0.0238
in 2-pentanone, 288.15 K	0.027
in 2-pentanone, 293.15 K	0.0309
in 2-pentanone, 297.85 K	0.0372
in 2-pentanone, 302.65 K	0.0446
in 2-pentanone, 307.25 K	0.0513
in 2-pentanone, 312.55 K	0.0603
in 2-pentanone, 317.35 K	0.0684
in 2-pentanone, 323.35 K	0.0808
in acetone, 272.65 K	0.0222
in acetone, 278.25 K	0.027
in acetone, 283.55 K	0.0311
in acetone, 288.15 K	0.0359
in acetone, 293.15 K	0.0415
in acetone, 297.85 K	0.0478
in acetone, 302.65 K	0.0545
in acetone, 307.25 K	0.0618
in acetone, 312.55 K	0.0702
in acetone, 317.35 K	0.0802
in acetone, 323.35 K	0.0913
in acetonitrile, 272.65 K	0.0108
in acetonitrile, 278.25 K	0.0128
in acetonitrile, 283.55 K	0.0156
in acetonitrile, 288.15 K	0.0176
in acetonitrile, 293.15 K	0.0203
in acetonitrile, 297.85 K	0.0251
in acetonitrile, 302.65 K	0.0308
in acetonitrile, 307.25 K	0.0366
in acetonitrile, 312.55 K	0.0449
in acetonitrile, 317.35 K	0.0531
in acetonitrile, 323.35 K	0.0661
in cyclohexanone, 272.65 K	0.0371
in cyclohexanone, 278.25 K	0.0457
in cyclohexanone, 283.55 K	0.0529
in cyclohexanone, 288.15 K	0.0618
in cyclohexanone, 293.15 K	0.072
in cyclohexanone, 297.85 K	0.0835
in cyclohexanone, 302.65 K	0.0952
in cyclohexanone, 307.25 K	0.109
in cyclohexanone, 312.55 K	0.124
in cyclohexanone, 317.35 K	0.143
in cyclohexanone, 323.35 K	0.164
in cyclopentanone, 272.65 K	0.0605
in cyclopentanone, 278.25 K	0.0721
in cyclopentanone, 283.55 K	0.0815
in cyclopentanone, 288.15 K	0.0918
in cyclopentanone, 293.15 K	0.103
in cyclopentanone, 297.85 K	0.116
in cyclopentanone, 302.65 K	0.128
in cyclopentanone, 307.25 K	0.14
in cyclopentanone, 312.55 K	0.154
in cyclopentanone, 317.35 K	0.169
in cyclopentanone, 323.35 K	0.185
in ethanol, 272.65 K	0.00996
in ethanol, 278.25 K	0.0138
in ethanol, 283.55 K	0.0184
in ethanol, 288.15 K	0.0234
in ethanol, 293.15 K	0.0302
in ethanol, 297.85 K	0.0384
in ethanol, 302.65 K	0.0485
in ethanol, 307.25 K	0.06
in ethanol, 312.55 K	0.0765
in ethanol, 317.35 K	0.0945
in ethanol, 323.35 K	0.123
in ethyl acetate, 272.65 K	0.0337
in ethyl acetate, 278.25 K	0.0366
in ethyl acetate, 283.55 K	0.0407
in ethyl acetate, 288.15 K	0.0436
in ethyl acetate, 293.15 K	0.0474
in ethyl acetate, 297.85 K	0.0536
in ethyl acetate, 302.65 K	0.0609
in ethyl acetate, 307.25 K	0.0678
in ethyl acetate, 312.55 K	0.0779
in ethyl acetate, 317.35 K	0.0867
in ethyl acetate, 323.35 K	0.101
in ethyl formate, 272.65 K	0.0286
in ethyl formate, 278.25 K	0.0364
in ethyl formate, 283.55 K	0.0471
in ethyl formate, 288.15 K	0.0542
in ethyl formate, 293.15 K	0.0631
in ethyl formate, 297.85 K	0.0772
in ethyl formate, 302.65 K	0.0928
in ethyl formate, 307.25 K	0.106
in ethyl formate, 312.55 K	0.125
in ethyl formate, 317.35 K	0.14
in ethyl formate, 323.35 K	0.163
in isobutanol, 272.65 K	0.00833
in isobutanol, 278.25 K	0.0116
in isobutanol, 283.55 K	0.0155
in isobutanol, 288.15 K	0.02
in isobutanol, 293.15 K	0.0259
in isobutanol, 297.85 K	0.0331
in isobutanol, 302.65 K	0.0423
in isobutanol, 307.25 K	0.0528
in isobutanol, 312.55 K	0.0669
in isobutanol, 317.35 K	0.0828
in isobutanol, 323.35 K	0.107
in isopentanol, 272.65 K	0.0102
in isopentanol, 278.25 K	0.0136
in isopentanol, 283.55 K	0.0174
in isopentanol, 288.15 K	0.0215
in isopentanol, 293.15 K	0.0264
in isopentanol, 297.85 K	0.0321
in isopentanol, 302.65 K	0.0385
in isopentanol, 307.25 K	0.0458
in isopentanol, 312.55 K	0.0546
in isopentanol, 317.35 K	0.0638
in isopentanol, 323.35 K	0.0769
in isopropanol, 272.65 K	0.00686
in isopropanol, 278.25 K	0.00999
in isopropanol, 283.55 K	0.0139
in isopropanol, 288.15 K	0.0184
in isopropanol, 293.15 K	0.025
in isopropanol, 297.85 K	0.0325
in isopropanol, 302.65 K	0.0422
in isopropanol, 307.25 K	0.0539
in isopropanol, 312.55 K	0.0718
in isopropanol, 317.35 K	0.0918
in isopropanol, 323.35 K	0.122
in methanol, 272.65 K	0.0213
in methanol, 278.25 K	0.028
in methanol, 283.55 K	0.0359
in methanol, 288.15 K	0.0444
in methanol, 293.15 K	0.0554
in methanol, 297.85 K	0.0675
in methanol, 302.65 K	0.0823
in methanol, 307.25 K	0.0984
in methanol, 312.55 K	0.121
in methanol, 317.35 K	0.145
in methanol, 323.35 K	0.18
in methyl acetate, 272.65 K	0.0189
in methyl acetate, 278.25 K	0.0234
in methyl acetate, 283.55 K	0.0296
in methyl acetate, 288.15 K	0.0341
in methyl acetate, 293.15 K	0.0397
in methyl acetate, 297.85 K	0.0488
in methyl acetate, 302.65 K	0.0596
in methyl acetate, 307.25 K	0.0694
in methyl acetate, 312.55 K	0.0838
in methyl acetate, 317.35 K	0.0956
in methyl acetate, 323.35 K	0.115
in n-butanol, 272.65 K	0.00804
in n-butanol, 278.25 K	0.0114
in n-butanol, 283.55 K	0.0157
in n-butanol, 288.15 K	0.0205
in n-butanol, 293.15 K	0.027
in n-butanol, 297.85 K	0.0349
in n-butanol, 302.65 K	0.0449
in n-butanol, 307.25 K	0.0569
in n-butanol, 312.55 K	0.0743
in n-butanol, 317.35 K	0.0934
in n-butanol, 323.35 K	0.123
in n-pentanol, 272.65 K	0.0117
in n-pentanol, 278.25 K	0.0147
in n-pentanol, 283.55 K	0.0182
in n-pentanol, 288.15 K	0.0219
in n-pentanol, 293.15 K	0.0264
in n-pentanol, 297.85 K	0.0314
in n-pentanol, 302.65 K	0.0373
in n-pentanol, 307.25 K	0.0437
in n-pentanol, 312.55 K	0.0521
in n-pentanol, 317.35 K	0.0609
in n-pentanol, 323.35 K	0.0733
in n-propanol, 272.65 K	0.0142
in n-propanol, 278.25 K	0.0187
in n-propanol, 283.55 K	0.0243
in n-propanol, 288.15 K	0.03
in n-propanol, 293.15 K	0.0377
in n-propanol, 297.85 K	0.0462
in n-propanol, 302.65 K	0.0567
in n-propanol, 307.25 K	0.0687
in n-propanol, 312.55 K	0.0849
in n-propanol, 317.35 K	0.102
in n-propanol, 323.35 K	0.127
